The target of the assay is CDK2 (UniProt P24941). Put plainly: Enzyme Assay. The conditions noted are these: concentration not given here.
For `COc1cc(Nc2nc(N)c(-c3nc(-c4cccc(Br)c4)cs3)s2)cc(OC)c1OC`, the inhibition is 15.6%. Take `COc1cc(Nc2nc(N)c(-c3nc(-c4cc(C)sc4C)cs3)s2)cc(OC)c1OC`: the inhibition is 7.3%. Turning to `Nc1nc(Nc2ccc(S(N)(=O)=O)cc2)sc1-c1nc(-c2ccc(Cl)cc2Cl)cs1`, the inhibition was 36%.

For `COc1cc(Nc2nc(N)c(-c3nc(-c4ccc(-c5ccccc5)cc4)cs3)s2)cc(OC)c1OC`, the inhibition stood at 20.4%. The value for `Cc1c(-c2csc(-c3sc(Nc4ccc(C(C)C)cc4)nc3N)n2)sc2ccc(Cl)cc12` was 34.8%; that for `Cc1c(F)cc(-c2csc(-c3sc(Nc4ccc(S(N)(=O)=O)cc4)nc3N)n2)cc1Cl` was 25%. For the compound `COc1ccccc1-c1csc(-c2sc(Nc3ccc(N(C)C)cc3)nc2N)n1`, the inhibition is -6.4%. Consider `COc1cc(Nc2nc(N)c(-c3nc(-c4sc5ccccc5c4C)cs3)s2)cc(OC)c1OC`, for which the inhibition turned out to be 23.1%.

On to `COc1cc(Nc2nc(N)c(-c3nc(-c4ccc(F)c(F)c4)cs3)s2)cc(OC)c1OC`, for which the inhibition is -5%. For the compound `CN(C)c1ccc(Nc2nc(N)c(-c3nc(-c4ccc5c(c4)CCC(=O)N5)cs3)s2)cc1`, the inhibition was -2.5%. In the case of `COc1cc(Nc2nc(N)c(-c3nc(-c4c(Cl)cc(C(F)(F)F)cc4Cl)cs3)s2)cc(OC)c1OC` it was -6%. In the case of `CC(C)c1ccc(Nc2nc(N)c(-c3nc(-c4ccc(OC(=O)c5ccccc5)cc4)cs3)s2)cc1`, the inhibition is 7.3%. With `COc1ccc(-c2csc(-c3sc(Nc4cc(OC)c(OC)c(OC)c4)nc3N)n2)c(OC)c1`, the inhibition was 4.9%. As for `COc1cc(Nc2nc(N)c(-c3nc(-c4ccc(OC(=O)c5ccccc5)cc4)cs3)s2)cc(OC)c1OC`, the inhibition was determined as 14.6%. On to `COc1cc(Nc2nc(N)c(-c3nc(-c4cc(C(C)(C)C)c(O)c(C(C)(C)C)c4)cs3)s2)cc(OC)c1OC`, for which the inhibition amounted to 5.3%. `COc1cc(Nc2nc(N)c(-c3nc(-c4ccc5ccccc5c4)cs3)s2)cc(OC)c1OC`: the inhibition amounted to 11.6%. The value for `COc1cc(Nc2nc(N)c(-c3nc(-c4ccc(C#N)cc4)cs3)s2)cc(OC)c1OC` was 15.6%. As for `COc1cc(Nc2nc(N)c(-c3nc(-c4cc(C(=O)C(Cl)(Cl)Cl)n(C)c4)cs3)s2)cc(OC)c1OC`, the inhibition was 3.9%.

Regarding `COc1cc(OC)c(-c2csc(-c3sc(Nc4cc(OC)c(OC)c(OC)c4)nc3N)n2)c(O)c1Cl`, the inhibition was found to be 11.8%. The value for `Nc1nc(Nc2ccc(S(N)(=O)=O)cc2)sc1-c1nc(-c2ccc(F)cc2)cs1` was 27%; that for `COc1cc(Nc2nc(N)c(-c3nc(-c4ccccc4[N+](=O)[O-])cs3)s2)cc(OC)c1OC` was 1.9%. `COc1cc(Nc2nc(N)c(-c3nc(-c4c(-c5ccccc5)noc4C)cs3)s2)cc(OC)c1OC`: the inhibition was found to be 13.6%. In the case of `CCN(CC)c1ccc(-c2csc(-c3sc(Nc4cc(OC)c(OC)c(OC)c4)nc3N)n2)cc1`, the inhibition was determined as 6.3%.

Consider `COc1cc(Nc2nc(N)c(-c3nc(-c4ccc[nH]4)cs3)s2)cc(OC)c1OC`, for which the inhibition amounted to 14.3%.

Regarding `COc1cc(Nc2nc(N)c(-c3nc(-c4sc5ccc(Cl)cc5c4C)cs3)s2)cc(OC)c1OC`, the inhibition is 9.65%.

For `COc1cc(Nc2nc(N)c(-c3nc(-c4ccc(Cl)c(C)c4)cs3)s2)cc(OC)c1OC`, the inhibition is -4.4%.

For the compound `Cc1onc(-c2ccccc2)c1-c1csc(-c2sc(Nc3ccc(S(N)(=O)=O)cc3)nc2N)n1`, the inhibition was -4.5%.

For `COc1cc(Nc2nc(N)c(-c3nc(-c4ccc(O)cc4)cs3)s2)cc(OC)c1OC`, the inhibition came out at 3%. In the case of `COc1cc(Nc2nc(N)c(-c3nc(-c4ccc(C)cc4)cs3)s2)cc(OC)c1OC` it was -2.1%; in that of `COc1cc(Nc2nc(N)c(-c3nc(-c4cccc(OC(=O)c5ccccc5)c4)cs3)s2)cc(OC)c1OC`, -12.3%. For the compound `COC(=O)c1ccc(-c2csc(-c3sc(Nc4cc(OC)c(OC)c(OC)c4)nc3N)n2)cc1`, the inhibition came to 0%.

Turning to `Cc1c(-c2csc(-c3sc(Nc4ccc(N(C)C)cc4)nc3N)n2)sc2ccc(Cl)cc12`, the inhibition stood at 27.2%.

The term inhibition denotes the change of the read-out against control, counted positive when it falls.

(Values after the Kinase Knowledgebase extract (Sharma et al. 2016).)
